# Source: patent publication US6004999A, “Triptolide derivatives useful in the treatment of autoimmune diseases” (priority 1998, dated 1999)
# Experiments:
# [1] = test system: immunosuppressive activity; conditions: in conjunction with another immunosuppressive agent (cyclosporin A, FK506, etc.); WO 94/26265; cited from earlier work
# [2] = test system: rat model of adjuvant-induced arthritis; assay: Anti-inflammatory activity in the rat model of adjuvant-induced arthritis; format: in vivo, rat (male Wistar-Lewis); conditions: 12 consecutive days
# Experimental: (§1) Following generally the procedure of Pearson and Wood, Arth. Rheum., 2, 44 (1959), the anti-inflammatory activity of the following compounds was determined in a rat model of adjuvant-induced arthritis. Male Wistar-Lewisrats (Mollegaard, Breeding Centre Ltd, BIBY, DK 4623 LI, SKENSVED, P.P. Box 28, DK) with a body weight between 160 g and 200 g are used. Freund's adjuvant (0.1 mL, 6 mg Mycobacterium smegmatis suspension per mL in heavy white paraffin oil, Merck/Darmstadt) was injected into the base of the tail. Between day 10 and day 14 of the test, immunopathological processes let to chronic inflammation, especially in the form of arthritic and periarthritic symptoms in all parts of the body. The animals received standardized food Altromin-R (Altrogge, Lage) and had free access to water. The compounds were administered i.p. (a suspension in carboxymethyl cellulose solution in an injection volume of 0.5 mL/100 g body weight) on 12 consecutive days, starting with the day of the adjuvant injection. On day 1 and day 18 of the study, the volume of both hind paws and the body weight were recorded, and in addition on day 18 the arthritis index. Cyclosporin A and Prednisolone were used as standard compounds. In addition, table IV presents the percent change in body weight (weight gain) between day 1 and day 21 of the above test.
# [3] = Percent change in body weight in the adjuvant-induced arthritis rat test; format: in vivo, rat (male Wistar-Lewis); conditions: between day 1 and day 21, arthritic CMC control 17.9, normal non-arthritic animals 32.0
# Experimental: as §1
# [4] = test system: Jurkat E6-1 cell line or lymphocytes prepared from fresh human blood; assay: Cell viability (MTT mitochondrial enzyme assay); format: cell-based; conditions: cell viability after 16-24 hours incubation; MTT 4 hours
# Experimental: (§2) Jurkat E6-1 cell line (ATCC), a human leukemic T cell line or lymphocytes prepared from fresh human blood, are grown in complete culture medium consisting of RPMI-1640 (Mediatech) supplemented with 10% v/v fetal bovine serum (HyClone, Logen, Vermont), penicillin (100 units/mL), streptomycin ([…]), and 2mM L-glutamine (GIBCO, Grand Island, N.Y.). The cells are grown to a concentration of between 1.2 to 1.8×10^6 cells/mL before use. The cells are then centrifuged at low speed and resuspended to a concentration of 1.25×10^6 cells/mL in fresh medium.
# (§3) The compounds to be tested are dissolved in DMSO, and water is added to make a 50% DMSO/water solution. The compounds are then diluted in sterile water such that the DMSO concentrations are less then 0.05%. The cells at a concentration of 1.25×10^6 cells/mL are stimulated with phytohemagglutinin 10 μg/mL (PHA) and 10^-8 M phorbol ester (12-O-tetradecanoylphorbol 13-acetate: TPA), (Sigma, St. Louis, Mo.). The compounds are then added and the cells are plated in flat-bottom tissue culture plates (Falcon, Lincoln Park, N.J.), with 250,000 cells/well. Plates are then incubated at 37° C. in a 5% CO2 atmosphere.
# Cell viability is measured by the use of a mitochondrial enzyme assay. After removal of the supernatant for the IL-2 assay, Cell Titer 96 (a commercial solution of MTT obtained from Promega, Madison, Wis.), is added to the plates and incubated for 4 hours at 37° C. A solubilization solution is then added and incubated overnight. The plates are then read on an ELISA plate reader at a wavelength of 570 nm. Table II presents the results for the lnterleukin-2 assay, the cell viability assay and the ratio of cell viability/IL-2 inhibition.
# IL-2 production = assay: Interleukin-2 assay: IL-2 production by PHA/TPA-stimulated cells (ELISA); format: cell-based, human; conditions: PHA 10 μg/mL and 10^-8 M TPA stimulation; 16-24 hours
# Experimental: as §2, §3
# After incubation (16-24 hours), the cells are assayed for IL-2 production and cell viability (MTT). IL-2 production is assayed utilizing a solid phase ELISA immunoassay, sold in kit form by R&D Systems, Inc., Minneapolis, Minn.
# lymphocyte proliferation = conditions: Yang et al. 1992, 1994; cited from earlier work
compound,measurement,setting,value
C[C@@H](CO)[C@]12O[C@H]1[C@@H]1O[C@]13[C@]1(O[C@H]1C[C@H]1C4=C(CC[C@@]13C)C(=O)OC4)[C@@H]2O [16-hydroxytriptolide],immunosuppressive activity,[1],increase in immunosuppressive activity relative to the sum of the effects
Cyclosporin A,% Inhibition,[2]; 10 mg/kg/day i.p.,100%
same,% Change in Body Weight (weight gain),[3]; 10 mg/kg/day i.p.,27.2%
"[1S (1α, 2β,3α, 3aβ,4aR*,4bα, 11aα)1-3-chloro-1, 2,3,3a,4b,5,6,9,9b, 10,11,11a-dodecahydro-1,2,11a-trihydroxy-4b-methyl-2-(1 -methylethyl)-7H-oxireno[4b,5]phenanthro [1,2-c]furan-7-one [Example 2]",IC50 /MTT,[4],550 ng/mL
same,IC50 /IL-2,IL-2 production,0.06 µg/mL
"CC(C)C12OC1C1OC13C1(C)CCC4=C(COC4=O)C1CCC3(O)C2O (stereo not drawn) [Example 1, [5aR-(5aα,6α,6aα,7aα,7bβ,8aS*,8bα)]-3,3b,4,5,5a,6,6a,7a,7b,8b,9,10-dodecahydro-5a,6-dihydroxy-8b-methyl-6a-(1-methylethyl)-1H-bisoxireno[4b,5:6,7]phenanthro[1,2-c]furan-1-one]",IC50 /IL-2,IL-2 production,0.036 µg/mL
same,% Inhibition,[2]; 10 mg/kg/day i.p.,90%
same,% Change in Body Weight (weight gain),[3]; 10 mg/kg/day i.p.,29.9%
C[C@]12C=CC(=O)C=C1CC[C@@H]1[C@@H]2[C@@H](O)C[C@@]2(C)[C@H]1CC[C@]2(O)C(=O)CO [Prednisolone],% Inhibition,[2]; 15 mg/kg/day i.p.,100%
same,% Change in Body Weight (weight gain),[3]; 15 mg/kg/day i.p.,14.2%
"[1S-(1α, 2β, 3α, 3aβ,4aR, 4bα, 11β, 11aα)-3-chloro-1, 2,3,3a,4b,5,6,9,9b, 10,11,11a-dodecahydro-1,11a-dihydroxy-4b-methyl-2-(1-methylethyl)-2,11 -epoxy-7oxireno[4b,5]phenanthro[1,2-c]furan-7-one [Example 3]",IC50 /MTT,[4],"> 1,000 ng/mL"
same,IC50 /IL-2,IL-2 production,0.14 µg/mL
CC(C)[C@]12O[C@H]1[C@@H]1O[C@]13[C@]1(O[C@H]1C[C@H]1C4=C(CC[C@@]13C)C(=O)OC4)[C@@H]2O [Triptolide],suppress lymphocyte proliferation,lymphocyte proliferation,suppress lymphocyte proliferation
same,IC50 /MTT,[4],5 ng/mL
same,% Inhibition,[2]; 0.2 mg/kg/day i.p.,70%
same,% Inhibition,[2]; 0.4 mg/kg/day i.p.,85%
same,% Inhibition,[2]; 0.8 mg/kg/day i.p.,76%
same,% Change in Body Weight (weight gain),[3]; 0.2 mg/kg/day i.p.,17.2%
same,% Change in Body Weight (weight gain),[3]; 0.4 mg/kg/day i.p.,22.0%
same,% Change in Body Weight (weight gain),[3]; 0.8 mg/kg/day i.p.,18.0%
